Patent US7119094B1, “Substituted polycyclic aryl and heteroarpyl pyrazinones useful for selective inhibition of the coagulation cascade” (Warner-Lambert Company, priority 2000, dated 2006)
Read-outs that look alike come from different tables or passages of the source. Each block holds one molecule with its values, some of them ahead of it.

Assays:
[1] = biological target: T1, Trypsin (type 1× from porcine pancreas) (Sus scrofa, UniProt P00761); experiment: Trypsin Assay; format: biochemical
T1 construct: Trypsin (5 ug/ml; type 1× from porcine pancreas); purchased Sigma, St. Louis Mo; host or cells: porcine pancreas
T1 sequence (P00761 9-231): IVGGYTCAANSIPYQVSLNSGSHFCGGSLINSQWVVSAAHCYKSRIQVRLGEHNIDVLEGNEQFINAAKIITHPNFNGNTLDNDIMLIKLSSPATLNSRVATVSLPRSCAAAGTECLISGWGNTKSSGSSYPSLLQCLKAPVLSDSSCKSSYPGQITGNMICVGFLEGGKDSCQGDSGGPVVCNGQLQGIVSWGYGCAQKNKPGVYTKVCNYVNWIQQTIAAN

[2] = biological target: T2, recombinant soluble tissue factor and recombinant human factor VIIa (TF-VIIa) (Homo sapiens, UniProt P08709); experiment: TF-VIIa Assay; format: biochemical
T2 construct: conversion of coagulation factor VII to VIIa by Xa; purchased American Diagnostica, Greenwich Conn; host or cells: factor VIIa purchased; soluble TF made in house in E. coli
T2 sequence (P08709 213-466 limits assumed): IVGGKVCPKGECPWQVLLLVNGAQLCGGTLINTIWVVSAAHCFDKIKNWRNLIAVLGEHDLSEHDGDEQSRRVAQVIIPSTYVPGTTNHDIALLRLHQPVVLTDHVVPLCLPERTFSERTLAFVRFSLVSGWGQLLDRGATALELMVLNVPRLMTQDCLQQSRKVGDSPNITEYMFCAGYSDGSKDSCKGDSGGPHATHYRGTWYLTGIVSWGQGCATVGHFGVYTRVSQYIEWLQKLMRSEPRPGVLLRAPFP
T2 sequence (P08709 61-212 limits assumed): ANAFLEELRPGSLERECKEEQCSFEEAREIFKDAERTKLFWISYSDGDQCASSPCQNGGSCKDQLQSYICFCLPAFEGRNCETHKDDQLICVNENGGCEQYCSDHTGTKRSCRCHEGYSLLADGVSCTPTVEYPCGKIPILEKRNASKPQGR
T2 sequence (P13726 33-251 partner limits assumed): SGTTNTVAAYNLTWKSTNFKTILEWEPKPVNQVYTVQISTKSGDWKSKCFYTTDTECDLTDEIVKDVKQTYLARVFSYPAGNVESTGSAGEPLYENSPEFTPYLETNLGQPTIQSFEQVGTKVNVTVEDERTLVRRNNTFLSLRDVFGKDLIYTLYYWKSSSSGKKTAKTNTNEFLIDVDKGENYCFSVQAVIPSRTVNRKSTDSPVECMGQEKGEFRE

[3] = biological target: T3, Human factor Xa (Homo sapiens, UniProt P00742); experiment: Xa Assay; format: biochemical; settings: for % Inhibition Factor Xa (30 µM): at 30 µM; for IC50: cells without % sign
T3 construct: Human factor Xa (0.3 nM); purchased Enzyme Research Laboratories, South Bend Ind
T3 sequence (P00742 235-488 limits assumed): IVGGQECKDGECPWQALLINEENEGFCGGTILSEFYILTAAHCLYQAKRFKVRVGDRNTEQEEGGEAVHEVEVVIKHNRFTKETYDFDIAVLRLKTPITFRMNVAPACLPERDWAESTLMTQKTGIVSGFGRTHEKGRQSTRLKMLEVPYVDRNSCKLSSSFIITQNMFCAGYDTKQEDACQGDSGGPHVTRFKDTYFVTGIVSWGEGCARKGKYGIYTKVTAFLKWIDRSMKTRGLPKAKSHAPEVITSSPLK
T3 sequence (P00742 41-179 limits assumed): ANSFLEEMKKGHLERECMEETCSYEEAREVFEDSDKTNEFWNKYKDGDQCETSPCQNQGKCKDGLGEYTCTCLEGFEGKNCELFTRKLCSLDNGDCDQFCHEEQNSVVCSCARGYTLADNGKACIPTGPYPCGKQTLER

[4] = biological target: T4, Human thrombin (Homo sapiens, UniProt P00734); experiment: biochemical
[5] = biological target: T4, Human thrombin
[6] = cells without % sign, read-out: IC50 Trypsin II
[7] = cells without % sign, read-out: IC50 TF-VIIa

IC50 ([1]; read-out: IC50 Trypsin II, cell printed 'at 100 μM', cell adds 'at 100 μM'): 48 nM
IC50 ([2]; read-out: IC50 TF-VIIa, cell printed 'at 100 μM', cell adds 'at 100 μM'): 140 nM
% Inhibition Factor Xa at 100 μM [3]: 21% at
SMILES: N=C(N)c1ccc(CNC(=O)Cn2c(-c3cccc(N)c3)c(Cl)nc(NC(CC(=O)O)c3ccccc3)c2=O)cc1 (racemic) [Example 131]

IC50 ([2]; read-out: IC50 TF-VIIa): 3600 nM
% Inhibition Factor Xa (30 µM) [3]: 4%
SMILES: COCC(C)Nc1nc(Cl)c(-c2ccccc2)n(CC(=O)NCc2ccc(C(=N)N)cc2)c1=O (stereo not drawn) [1512-07]

IC50 [1, 6]: 210 nM
IC50 [2, 7]: 170 nM
IC50 [3]: > 30000 nM
SMILES: CCC(C)(C)Nc1nc(Cl)c(-c2cccc(N)c2)n(CC(=O)NCc2ccc(C(=N)N)cc2)c1=O [1526-06]

IC50 [1, 6]: 170 nM
IC50 [2, 7]: 80 nM
IC50 [3]: > 30000 nM
SMILES: CC(C)CC(C)Nc1nc(Cl)c(-c2cccc(N)c2)n(CC(=O)NCc2ccc(C(=N)N)cc2)c1=O (stereo not drawn) [1526-17]

IC50 [1, 6]: 200 nM
IC50 [2, 7]: 80 nM
IC50 [3]: > 30000 nM
SMILES: N=C(N)c1ccc(CNC(=O)Cn2c(-c3cccc(N)c3)c(Cl)nc(NC3CC4CCC3C4)c2=O)cc1 (stereo not drawn) [1526-30]

IC50 [1, 6]: 40 nM
IC50 [2, 7]: 70 nM
% Inhibition Factor Xa (30 µM) ([3]; cells with % sign, and bare 0): 24%
SMILES: N=C(N)c1ccc(CNC(=O)Cn2c(-c3cccc(N)c3)c(Cl)nc(NCCCCCC(N)=O)c2=O)cc1 [1543-11]

IC50 [1, 6]: 50 nM
IC50 [2, 7]: 280 nM
% Inhibition Factor Xa (30 µM) ([3]; cells with % sign, and bare 0): 26%
SMILES: CCN(CC)CC(C)Nc1nc(Cl)c(-c2cccc(N)c2)n(CC(=O)NCc2ccc(C(=N)N)cc2)c1=O (stereo not drawn) [1543-25]

SMILES: Nc1cccc(-c2c(Cl)nc(NC3CCC3)c(=O)n2CC(=O)N2CCC3(CC2)OCCO3)c1 [1543-41]
% Inhibition Trypsin II (30 µM) ([1]; at 30 µM, cells with % sign): 6%
% Inhibition TF-VIIa (30 µM) ([2]; at 30 µM, cells with % sign): 3%
% Inhibition Factor Xa (30 µM) ([3]; cells with % sign, and bare 0): 9%

% Inhibition Factor Xa at 100 μM [3]: 43% at
SMILES: CC(C)Nc1nc(Cl)c(-c2cc(N)cc(C(=O)NCc3ccc(Cl)cc3Cl)c2)n(CC(=O)NCc2ccc(C(=N)N)cc2)c1=O [Example 128-5]

% Inhibition Factor Xa at 100 μM [3]: 44% at
SMILES: CC(C)Nc1nc(Cl)c(-c2cc(N)cc(C(=O)NCc3ccc(Br)cc3)c2)n(CC(=O)NCc2ccc(C(=N)N)cc2)c1=O [Example 128-8]

% Inhibition Factor Xa at 100 μM [3]: 24% at
SMILES: CC(CC(=O)O)Nc1nc(Cl)c(-c2cccc(N)c2)n(CC(=O)NCc2ccc(C(=N)N)cc2)c1=O (stereo not drawn) [Example 130]

% Inhibition Factor Xa at 100 μM [3]: 6% at
SMILES: C[C@H](Nc1nc(Cl)c(-c2cccc(N)c2)n(CC(=O)NCc2ccc(C(=N)N)cc2)c1=O)C(=O)O [Example 135]

IC50 [4]: > 30000 nM
SMILES: N=C(N)c1ccc(C(=O)NCCn2c(-c3cccc(N)c3)c(Cl)nc(NC3CCC3)c2=O)cc1 [Example 136]

IC50 [1, 6]: 2000 nM
IC50 [2, 7]: 9000 nM
% Inhibition Factor Xa (30 µM) ([3]; cells with % sign, and bare 0): 0%
SMILES: CC(C(=O)NCc1ccc(C(=N)N)cc1)n1c(-c2ccccc2)c(Cl)nc(NCc2ccccc2)c1=O (stereo not drawn) [Example 1517-03]

IC50 [1, 6]: 1200 nM
IC50 [2, 7]: 4600 nM
% Inhibition Factor Xa (30 µM) ([3]; cells with % sign, and bare 0): 0%
SMILES: CC(C(=O)NCc1ccc(C(=N)N)cc1)n1c(-c2ccccc2)c(Cl)nc(NCc2ccccc2)c1=O (stereo not drawn) [Example 1517-05]

IC50 [1, 6]: 1500 nM
IC50 [2, 7]: 2600 nM
% Inhibition Factor Xa (30 µM) ([3]; cells with % sign, and bare 0): 0%
SMILES: CC(C(=O)NCc1ccc(C(=N)N)cc1)n1c(-c2ccccc2)c(Cl)nc(NC2CCC2)c1=O (stereo not drawn) [Example 1517-09]

IC50 [1, 6]: 1900 nM
IC50 [2, 7]: 3000 nM
% Inhibition Factor Xa (30 µM) ([3]; cells with % sign, and bare 0): 0%
SMILES: CC(C(=O)NCc1ccc(C(=N)N)cc1)n1c(-c2ccccc2)c(Cl)nc(NC2CCC2)c1=O (stereo not drawn) [Example 1517-11]

IC50 [1, 6]: 1500 nM
IC50 [2, 7]: 3100 nM
% Inhibition Factor Xa (30 µM) ([3]; cells with % sign, and bare 0): 0%
SMILES: CC(C(=O)NCc1ccc(C(=N)N)cc1)n1c(-c2ccccc2)c(Cl)nc(NCCc2ccccc2)c1=O (stereo not drawn) [Example 1517-15]

IC50 [1, 6]: 850 nM
IC50 [2, 7]: 1800 nM
% Inhibition Factor Xa (30 µM) ([3]; cells with % sign, and bare 0): 0%
SMILES: CC(C(=O)NCc1ccc(C(=N)N)cc1)n1c(-c2ccccc2)c(Cl)nc(NCCc2ccccc2)c1=O (stereo not drawn) [Example 1517-17]

IC50 [1, 6]: 1400 nM
IC50 [2, 7]: 2300 nM
% Inhibition Factor Xa (30 µM) ([3]; cells with % sign, and bare 0): 0%
SMILES: CC(C(=O)NCc1ccc(C(=N)N)cc1)n1c(-c2ccccc2)c(Cl)nc(NCCc2cccc(Cl)c2)c1=O (stereo not drawn) [Example 1517-23]

SMILES: O=C(Cn1c(-c2ccc(-c3ccccc3)cc2)c(Cl)nc(NCCc2cccnc2)c1=O)NCCc1ccncc1 [Example E-0053]
% Inhibition Trpysin II (100 νM) [1]: 0%
% Inhibition TF-VIIa (100 νM) [2]: 0%
% Inhibition Thrombin II (100 νM) [5]: 0%

SMILES: O=C(Cn1c(-c2ccc(-c3ccccc3)cc2)c(Cl)nc(NCCc2ccncc2)c1=O)NCCc1ccncc1 [Example E-0054]
% Inhibition Thrombin II (100 νM) [5]: 0%

SMILES: O=C(Cn1c(-c2ccc(-c3ccccc3)cc2)c(Cl)nc(NCCN2CCOCC2)c1=O)NCCc1ccncc1 [Example E-0055]
% Inhibition Trpysin II (100 νM) [1]: 0%
% Inhibition TF-VIIa (100 νM) [2]: 0%
% Inhibition Thrombin II (100 νM) [5]: 0%

SMILES: O=C(Cn1c(-c2ccc(-c3ccccc3)cc2)c(Cl)nc(NCc2ccncc2)c1=O)NCCc1ccncc1 [Example E-0056]
% Inhibition Trpysin II (100 νM) [1]: 0%
% Inhibition TF-VIIa (100 νM) [2]: 0%
% Inhibition Thrombin II (100 νM) [5]: 0%

% Inhibition Trpysin II (100 νM) ([1]; inhibitor at 100 νM): 8%
% Inhibition TF-VIIa (100 νM) ([2]; inhibitor at 100 νM): 0%
SMILES: COc1ccc(-c2c(Cl)nc(NCc3ccccc3)c(=O)n2CC(=O)NCCc2cccnc2)cc1 [Example E-0098]

% Inhibition Trpysin II (100 νM) ([1]; inhibitor at 100 νM): 11%
% Inhibition TF-VIIa (100 νM) ([2]; inhibitor at 100 νM): 2%
SMILES: COc1ccc(-c2c(Cl)nc(NCCc3cccc(Cl)c3)c(=O)n2CC(=O)NCCc2ccncc2)cc1 [Example E-0103]

% Inhibition Trpysin II (100 νM) ([1]; inhibitor at 100 νM): 9%
% Inhibition TF-VIIa (100 νM) ([2]; inhibitor at 100 νM): 3%
SMILES: COc1ccc(-c2c(Cl)nc(NCCc3cccc(Cl)c3)c(=O)n2CC(=O)NCCc2cccnc2)cc1 [Example E-0104]

% Inhibition Trpysin II (100 νM) ([1]; inhibitor at 100 νM): 9%
% Inhibition TF-VIIa (100 νM) ([2]; inhibitor at 100 νM): 5%
SMILES: COc1ccc(-c2c(Cl)nc(NCCc3ccc(Cl)cc3)c(=O)n2CC(=O)NCCc2ccncc2)cc1 [Example E-0106]

% Inhibition Trpysin II (100 νM) ([1]; inhibitor at 100 νM): 12%
% Inhibition TF-VIIa (100 νM) ([2]; inhibitor at 100 νM): 4%
SMILES: COc1ccc(-c2c(Cl)nc(NCCc3ccc(Cl)cc3)c(=O)n2CC(=O)NCCc2cccnc2)cc1 [Example E-0107]

SMILES: O=C(Cn1c(-c2ccc(-c3ccccc3)cc2)c(Cl)nc(NCc2ccccc2)c1=O)NCCc1ccncc1 [Example E-0109]
% Inhibition Trpysin II (100 νM) [1]: 12%
% Inhibition TF-VIIa (100 νM) [2]: 2%

SMILES: O=C(Cn1c(-c2ccc(-c3ccccc3)cc2)c(Cl)nc(NCc2ccccc2)c1=O)NCCc1cccnc1 [Example E-0110]
% Inhibition TF-VIIa (100 νM) [2]: 0%
% Inhibition Thrombin II (100 νM) [5]: 0%

SMILES: O=C(Cn1c(-c2ccc(-c3ccccc3)cc2)c(Cl)nc(NCCc2ccccc2)c1=O)NCCc1ccncc1 [Example E-0112]
% Inhibition Trpysin II (100 νM) [1]: 13%
% Inhibition TF-VIIa (100 νM) [2]: 11%

SMILES: O=C(Cn1c(-c2ccc(-c3ccccc3)cc2)c(Cl)nc(NCCc2cccc(Cl)c2)c1=O)NCCc1cccnc1 [Example E-0116]
% Inhibition Trpysin II (100 νM) [1]: 10%
% Inhibition Thrombin II (100 νM) [5]: 0%

SMILES: O=C(Cn1c(-c2ccc(-c3ccccc3)cc2)c(Cl)nc(NCCc2ccc(Cl)cc2)c1=O)NCCc1ccncc1 [Example E-0118]
% Inhibition Trpysin II (100 νM) [1]: 9%
% Inhibition TF-VIIa (100 νM) [2]: 12%

SMILES: O=C(Cn1c(-c2ccc(-c3ccccc3)cc2)c(Cl)nc(NCCc2ccc(Cl)cc2)c1=O)NCCc1cccnc1 [Example E-0119]
% Inhibition Trpysin II (100 νM) [1]: 10%
% Inhibition Thrombin II (100 νM) [5]: 0%
